Results reported in patent US6255303A, “Phthalazinone PDE III/IV inhibitors” (Byk Gulden Lomberg Chemische Fabrik GmbH, priority 1998, dated 2001).

Columns and labels:
PDE3 = target: T1, PDE3 (Homo sapiens, UniProt Q14432); experiment: Inhibition of PDE isoenzymes: PDE3 (cGMP-inhibited), homogenates of human blood platelets; type: biochemical; details: 0.5 μM cAMP or cGMP, pH 7.4, 37° C., 15 min, read-out: -log IC50 PDE3 (converted)
T1 construct: investigated in homogenates of human blood platelets; from tissue; host or cells: human blood platelets (homogenate)
T1 sequence (Q14432 whole entry): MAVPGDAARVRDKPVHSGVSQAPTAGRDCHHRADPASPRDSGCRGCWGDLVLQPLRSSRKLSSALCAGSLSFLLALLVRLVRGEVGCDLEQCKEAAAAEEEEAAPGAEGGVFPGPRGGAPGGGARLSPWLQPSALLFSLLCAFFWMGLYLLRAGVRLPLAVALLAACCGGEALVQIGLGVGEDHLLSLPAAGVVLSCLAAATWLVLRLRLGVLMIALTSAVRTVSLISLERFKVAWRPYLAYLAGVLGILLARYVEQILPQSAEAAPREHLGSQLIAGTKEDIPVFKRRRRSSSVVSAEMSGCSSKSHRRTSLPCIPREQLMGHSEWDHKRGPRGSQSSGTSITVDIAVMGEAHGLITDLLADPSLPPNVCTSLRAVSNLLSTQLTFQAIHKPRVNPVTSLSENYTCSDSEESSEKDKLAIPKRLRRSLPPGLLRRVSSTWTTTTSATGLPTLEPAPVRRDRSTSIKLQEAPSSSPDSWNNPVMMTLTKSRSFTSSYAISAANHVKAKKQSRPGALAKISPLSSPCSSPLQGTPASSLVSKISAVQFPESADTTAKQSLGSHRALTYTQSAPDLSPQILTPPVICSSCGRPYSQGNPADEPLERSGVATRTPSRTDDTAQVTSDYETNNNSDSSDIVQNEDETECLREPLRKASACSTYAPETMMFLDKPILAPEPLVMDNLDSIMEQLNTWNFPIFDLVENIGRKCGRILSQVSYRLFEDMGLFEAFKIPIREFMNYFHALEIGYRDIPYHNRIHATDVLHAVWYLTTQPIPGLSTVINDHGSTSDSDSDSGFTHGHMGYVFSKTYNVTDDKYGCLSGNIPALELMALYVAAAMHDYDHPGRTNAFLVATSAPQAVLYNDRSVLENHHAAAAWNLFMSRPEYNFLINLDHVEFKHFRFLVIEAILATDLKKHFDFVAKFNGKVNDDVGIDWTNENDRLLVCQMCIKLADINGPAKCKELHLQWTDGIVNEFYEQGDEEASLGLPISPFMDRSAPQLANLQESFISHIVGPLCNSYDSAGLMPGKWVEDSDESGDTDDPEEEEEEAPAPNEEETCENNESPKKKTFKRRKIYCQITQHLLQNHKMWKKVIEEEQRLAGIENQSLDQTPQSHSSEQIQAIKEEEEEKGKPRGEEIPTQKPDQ

PDE4 = experiment: Inhibition of PDE isoenzymes: PDE4 (cAMP-specific), cytosol of human polymorphonuclear leukocytes, cAMP as substrate; type: biochemical; details: cytosol of human PMNL; 0.5 μM cAMP; motapizone (1 μM) to suppress PDE3; pH 7.4, 37° C., 15 min

| SMILES | IC50 (PDE3) [nM] | -log IC50 PDE4 (PDE4) [mol/l] |
| --- | --- | --- |
| CCOc1ccc(C2=NN(c3ccc(C4=NNC(=O)CC4C)cc3)C(=O)[C@H]3CC=CC[C@@H]23)cc1OCC (relative stereo) [Compound 14, (cis)-4-(3,4-diethoxyphenyl)-2-{4-(4-methyl-6-oxo-1,4,5,6-tetrahydropyridazin-3-yl)phenyl}-4a,5,8,8a-tetrahydro-2H-phthalazin-1-one] | 275 | 8.05 |
| CCOc1ccc(C2=NN(CCCCOc3ccc(C4=NNC(=O)CC4C)cc3)C(=O)[C@H]3CC=CC[C@@H]23)cc1OCC (relative stereo) [Compound 15, (cis)-6-(4-[4-{4-(3,4-diethoxyphenyl)-1-oxo-4a,5,8,8a-tetrahydro-2H-phthalazin-2-yl}-1-butyloxy)phenyl]-4,5-dihydro-5-methyl-2H-pyridazin-3-one] | 209 | 8.60 |
| COc1ccc(C2=NN(c3ccc(C4=NNC(=O)CC4C)cc3)C(=O)[C@H]3CC=CC[C@@H]23)cc1Cl (relative stereo) [Compound 12, (cis)-4-(3-chloro-4-methoxyphenyl)-2-{4-(4-methyl-6-oxo-1,4,5,6-tetrahydropyridazin-3-yl)phenyl}-4a,5,8,8a-tetrahydro-2H-phthalazin-1-one] | 81.3 | 7.00 |
| COc1ccc(C2=NN(CC(=O)Nc3ccc(-c4ccc(=O)[nH]n4)cc3)C(=O)[C@@H]3CC=CC[C@H]23)cc1OC (relative stereo) [Compound 5] | 1260 | 8.10 |
| COc1ccc(C2=NN(c3ccc(C(=O)Nc4ccc(-c5ccc(=O)[nH]n5)cc4)cc3)C(=O)[C@H]3CC=CC[C@@H]23)cc1OC (relative stereo) [Compound 9, (cis)-N-{4-(6-Oxo-1,6-dihydro-pyridazin-3-yl)phenyl}-4-(4-{3,4-dimethoxyphenyl}-1-oxo-4a,5,8,8a-tetrahydro-1H-phthalazin-2-yl)benzamide] | 4900 | 9.08 |
| COc1ccc(C2=NN(CCCCOc3ccc(C4=NNC(=O)CC4C)cc3)C(=O)[C@H]3CC=CC[C@@H]23)cc1Cl (relative stereo) [Compound 13, (cis)-6-(4-[4-{4-(3-Chloro-4-methoxyphenyl)-1-oxo-4a,5,8,8a-tetrahydro-2H-phthalazin-2-yl}-1-butyloxy)phenyl]-4,5-dihydro-5-methyl-2H-pyridazin-3-one] | 35.5 | 7.77 |

Other lines, results leading:

| IC50 (PDE3) [nM] | -log IC50 PDE4 (PDE4) [mol/l] | SMILES |
| --- | --- | --- |
| 832 | 8.17 | COc1ccc(C2=NN(CCCCC(=O)Nc3ccc(-c4ccc(=O)[nH]n4)cc3)C(=O)[C@@H]3CC=CC[C@H]23)cc1OC (relative stereo) [Compound 6] |
| 204 | 8.36 | COc1ccc(C2=NN(c3ccc(C4=NNC(=O)CC4C)cc3)C(=O)[C@H]3CC=CC[C@@H]23)cc1OC (relative stereo) [Compound 2, (cis)-4-(3,4-Dimethoxyphenyl)-2-{4-(4-methyl-6-oxo-1,4,5,6-tetrahydropyridazin-3-yl)phenyl}-4a,5,8,8a-tetrahydro-2H-phthalazin-1-one] |
| 100 | 8.17 | COc1ccc(C2=NN(C(C)CCC(=O)Nc3ccc(C4=NNC(=O)CC4C)cc3)C(=O)[C@H]3CC=CC[C@@H]23)cc1OC (relative stereo) [Compound 8, (cis)-N-{4-(4-Methyl-6-oxo-1,4,5,6-tetrahydro-pyridazin-3-yl)phenyl}-4-{4-(3,4-dimethoxyphenyl)-1-oxo-4a,5,8,8a-tetrahydro-1H-phthalazin-2-yl}valeramide] |
| 891 | 8.48 | COc1ccc(C2=NN(c3ccc(C(=O)Nc4ccc(C5=NNC(=O)CC5C)cc4)cc3)C(=O)[C@H]3CC=CC[C@@H]23)cc1OC (relative stereo) [Compound 4, (cis)-N-{4-(4-Methyl-6-oxo-1,4,5,6-tetrahydro-pyridazin-3-yl)phenyl}-4-{4-(3,4-dimethoxyphenyl)-1-oxo-4a,5,8,8a-tetrahydro-1H-phthalazin-2-yl}benzamide] |
| 182 | 8.40 | COc1ccc(C2=NN(CC(=O)Nc3ccc(C4=NNC(=O)CC4C)cc3)C(=O)[C@H]3CC=CC[C@@H]23)cc1OC (relative stereo) [Compound 7, (cis)-N-{4-(4-Methyl-6-oxo-1,4,5,6-tetrahydro-pyridazin-3-yl)phenyl}-2-{4-(3,4-dimethoxy-phenyl)-1-oxo-4a,5,8,8a-tetrahydro-1H-phthalazin-2-yl}acetamide] |
| 437 | 8.64 | COc1ccc(C2=NN(c3ccc(C4=NNC(=O)CC4C)cc3)C(=O)[C@@H]3CC=CC[C@H]23)cc1OC (stereo partly drawn) [Compound 16, (4aS,8aR)-4-[4-{4-(3,4-dimethoxyphenyl)-1-oxo-4a,5,8,8a-tetrahydro-2H-phthalazin-2-yl}phenyl]-5,6-dihydro-5-methylpyridazin-1-one] |
